Data as given in patent US20090054326A1 (NASTECH PHARMACEUTICAL COMPANY INC., priority 2005, published 2009).

Assays:
[1] = test system: aminopeptidases; conditions: cited from earlier work
[2] = test system: normal, human-derived tracheal/bronchial epithelial cells (EpiAirway Tissue Model); assay: Transepithelial electrical resistance (TER) in EpiAirway tissue model; format: cell-based; conditions: after one hour exposure at 37° C.; Examples 1-4
Experimental: Samples were evaluated in an in vitro tissue model. […] Inserts were feed for each day of recovery.
TER measurements were accomplished using the Endohm-12 Tissue Resistance Measurement Chamber connected to the EVOM Epithelial Voltohmmeter (World Precision Instruments, Sarasota, Fla.) with the electrode leads. The electrodes and a tissue culture blank insert were equilibrated for at least 20 minutes in MatTek medium with the power off prior to check calibration. The background resistance was measured with 1.5 ml Media in the Endohm tissue chamber and 300 μl Media in the blank insert. The top electrode was adjusted so that it was close to, but not making contact with, the top surface of the insert membrane. Background resistance of the blank insert was about 5-20 ohms. For each TER determination, 300 μl of MatTek medium was added to the insert followed by placement in the Endom chamber. Resistance was expressed as (resistance measured−blank)×0.6 cm^2.

Molecule | more effective in enzyme inhibition than bestatin ([1]; relative to bestatin) | more effective in enzyme inhibition than puromycin ([1]; relative to puromycin) | change in TER [2]
CC(C)CC(N)B(O)O (stereo not drawn) [boro-leucine] | more than 100 times | more than 1000 times | –
Triton X | – | – | essentially a complete reduction in TER
